This note sets out measurements from patent publication US20260152487A1 (Sitryx Therapeutics Limited, priority 2021, published 2026).

The assay concerns the target T1, recombinant human PKM2 (Homo sapiens, UniProt P14618).
T1 construct: His (N); purchased R&D Systems
Briefly: Human PKM2 activation assay (Kinase-Glo Plus luminescent detection of generated ATP). It is filed as biochemical. As to conditions: for Emax: read-out: hPKM2 Emax; for EC50: recombinant human PKM2 activation, 4-parameter logistic fit, read-out: hPKM2 EC50. Here is the method:
Compound activation of recombinant human PKM2 pyruvate kinase activity was determined by biochemical assay. N-terminal His-tagged hPKM2 was sourced from R&D Systems and its substrates phosphoenolpyruvate (PEP) and ADP from Sigma-Aldrich and 2Bscientific Ltd, respectively. The Kinase-Glo® Plus luminescence assay was from Promega. All other reagents were from Sigma-Aldrich. Test Compounds were prepared as 10 mM DMSO stocks and dilution series prepared in DMSO for direct dilution into Assay Buffer comprising 50 mM imidazole, 50 mM KCl, 7 mM MgCl2, 0.01% Tween20, 0.05% BSA (pH 7.2).
Human PKM2 was diluted into Assay Buffer comprising 50 mM imidazole, 50 mM KCl, 7 mM MgCl2, 0.01% Tween20, 0.05% BSA (pH 7.2) to a final concentration of […]. Enzyme-Assay Buffer mix was dispensed into a 384-well shallow-well white-walled plate (PerkinElmer) and Test Compounds added by acoustic dispense (Echo®, Labcyte Inc.).
After 60 minutes' incubation on an orbital shaker (300 rpm, 26° C.), enzyme activity was quantified by the luminescent detection of generated ATP. Kinase-Glo® Plus reagent was added to each well and the plates incubated for a further 15 minutes on an orbital shaker in the dark (300 rpm, 26° C.) before luminescence measurement on a plate reader (PHERAstar® FSX, BMG Labtech).
Percentage activation was calculated by normalising […] signals to plate LOW (DMSO vehicle) and HIGH (5 μM TEPP-46) controls. EC50 and Emax values were determined from 4-parameter logistic fits of compound concentration-response curves.
On the technique in general: In Kinase-Glo more light means more ATP remaining.

Where [1] appears, read: percentage activation normalised to DMSO vehicle (LOW) and 5 μM TEPP-46 (HIGH).

T1 sequence (P14618 2-531 limits assumed): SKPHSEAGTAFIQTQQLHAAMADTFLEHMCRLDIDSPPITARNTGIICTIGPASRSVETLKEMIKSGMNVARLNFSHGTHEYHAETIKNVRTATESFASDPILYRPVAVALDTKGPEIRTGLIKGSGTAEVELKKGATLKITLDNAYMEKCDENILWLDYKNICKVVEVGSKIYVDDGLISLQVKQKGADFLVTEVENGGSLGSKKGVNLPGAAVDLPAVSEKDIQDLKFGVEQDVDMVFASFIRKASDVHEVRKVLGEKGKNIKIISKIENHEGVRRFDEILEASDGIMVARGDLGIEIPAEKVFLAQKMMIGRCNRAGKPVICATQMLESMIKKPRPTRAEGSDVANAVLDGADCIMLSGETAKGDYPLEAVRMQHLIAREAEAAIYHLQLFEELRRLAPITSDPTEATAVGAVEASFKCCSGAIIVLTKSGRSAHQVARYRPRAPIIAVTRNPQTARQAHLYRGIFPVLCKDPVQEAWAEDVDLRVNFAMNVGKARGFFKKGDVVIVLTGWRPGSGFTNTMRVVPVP

What is called Emax is the maximal effect, on the per cent scale that the assay sets. One may read the EC50 as the midpoint of the concentration-response curve. In the case of `COc1ccnc(S(=O)(=O)c2ccc3c(=O)n(Cc4ccc(OC)nc4)ncc3c2)c1` [Example 165, 6-(4-methoxypyridin-2-ylsulfonyl)-2-((6-methoxypyridin-3-yl)methyl)phthalazin-1(2H)-one], the EC50 amounted to 456 nM. The maximal effect (Emax) under setting [1] is 77.5%.
Taken in the same sequence, the figures for `O=c1c2ccc(S(=O)(=O)c3ccncc3)cc2cnn1Cc1cc[nH]n1` [Example 254, 2-((1H-pyrazol-3-yl)methyl)-6-(pyridin-4-ylsulfonyl)phthalazin-1(2H)-one] were 498 nM and 107%.
Regarding `Cc1cccc(Cn2ncc3cc(S(=O)(=O)c4csc(C(C)O)n4)ccc3c2=O)n1` (centres unmarked) [Example 282, 6-((2-(1-hydroxyethyl)thiazol-4-yl)sulfonyl)-2-((6-methylpyridin-2-yl)methyl)phthalazin-1(2H)-one], the concentration giving a half-maximal response (EC50) stood at 155 nM. Moreover, the Emax under setting [1] was 109%.
Consider `COc1ccc(Cn2ncc3cc(S(=O)(=O)c4ccc(OC(F)F)nc4)ccc3c2=O)cn1` [Example 124, 6-((6-(difluoromethoxy)pyridin-3-yl)sulfonyl)-2-((6-methoxypyridin-3-yl)methyl)phthalazin-1(2H)-one], for which the concentration for a half-maximal effect (EC50) was 31.3 nM. Moreover, under setting [1], the maximal effect (Emax) was found to be 107%.
As to `Cc1cccc(Cn2ncc3cc(S(=O)(=O)c4cnn(CCN)c4)ccc3c2=O)n1` [Example 277, 6-((1-(2-aminoethyl)-1H-pyrazol-4-yl)sulfonyl)-2-((6-methylpyridin-2-yl)methyl)phthalazin-1(2H)-one], the EC50 is 304 nM. Moreover, the Emax under setting [1] amounted to 105%.
As to `Cn1ccc(Cn2ncc3cc(S(=O)(=O)c4ccc(OC(F)F)cc4)ccc3c2=O)n1` [Example 212, 6-((4-(difluoromethoxy)phenyl)sulfonyl)-2-((1-methyl-1H-pyrazol-3-yl)methyl)phthalazin-1(2H)-one], the EC50 stood at 23.8 nM. Moreover, the Emax under setting [1] came to 108%.
Consider `Cn1cc(Cl)c(Cn2ncc3cc(S(=O)(=O)c4cn[nH]c4)ccc3c2=O)n1` [Example 308], for which the EC50 worked out at 145 nM. Further, under setting [1], the maximum response (Emax) is 95.5%.
Turning to `NC(=O)c1cccc(Cn2ncc3cc(S(=O)(=O)c4ccccc4)ccc3c2=O)c1` [Example 84, 3-((1-oxo-6-(phenylsulfonyl)phthalazin-2(1H)-yl)methyl)benzamide], the half-maximal effective concentration (EC50) is 115 nM. Besides, the maximal response (Emax) under setting [1] was determined as 93.1%.
In the same order, the values of `COC(C)c1nc(S(=O)(=O)c2ccc3c(=O)n(Cc4cc[nH]n4)ncc3c2)cs1` (centres unmarked) [Example 351] are 93.9 nM and 103%.
As for `COc1cccc(S(=O)(=O)c2ccc3c(=O)n(Cc4cc[nH]n4)ncc3c2)n1` [Example 286, 2-((1H-pyrazol-3-yl)methyl)-6-((6-methoxypyridin-2-yl)sulfonyl)phthalazin-1(2H)-one], the EC50 was 246 nM. Besides, the maximal effect (Emax) under setting [1] was determined as 105%.
Taken in the same sequence, the figures for `COc1ccc(S(=O)(=O)c2ccc3c(=O)n(Cc4cnccc4O)ncc3c2)cc1` [Example 107, 2-((4-hydroxypyridin-3-yl)methyl)-6-(4-methoxyphenylsulfonyl)phthalazin-1(2H)-one] were 585 nM and 103%.
In the same order, the values of `COc1ccc(Cn2ncc3cc(S(=O)(=O)c4cn(C)c(C)n4)ccc3c2=O)cn1` [Example 185, 6-(1,2-dimethyl-1H-imidazol-4-ylsulfonyl)-2-((6-methoxypyridin-3-yl)methyl)phthalazin-1(2H)-one] are 739 nM and 66%.
Taken in the same sequence, the figures for `N#Cc1sccc1Cn1ncc2cc(S(=O)(=O)c3ccccc3)ccc2c1=O` [Example 23, 3-((1-oxo-6-(phenylsulfonyl)phthalazin-2(1H)-yl)methyl)thiophene-2-carbonitrile] were 265 nM and 112%.
As for `CC(O)c1cccc(Cn2ncc3cc(S(=O)(=O)c4cnn(C)c4)ccc3c2=O)n1` (centres unmarked) [Example 274, 2-((6-(1-hydroxyethyl)pyridin-2-yl)methyl)-6-((1-methyl-1H-pyrazol-4-yl)sulfonyl)phthalazin-1(2H)-one], the EC50 stood at 350 nM. The Emax under setting [1] is 93%.
`COc1ccc([S@](=N)(=O)c2ccc3c(=O)n(Cc4ccc(OC)nc4)ncc3c2)cc1` (single isomer, unassigned) [Example 139]: the EC50 worked out at 129 nM. Under setting [1], the “hPKM2 Emax” value amounted to 81.9%.
With `COc1ccc(S(=O)(=O)c2ccc3c(=O)n(Cc4cccc(N)c4)ncc3c2)cn1` [Example 149, 2-(3-aminobenzyl)-6-((6-methoxypyridin-3-yl)sulfonyl)phthalazin-1(2H)-one], the EC50 is 54.6 nM. The maximal effect (Emax) under setting [1] was found to be 100%.
For `NC(=O)c1ccc(Cn2ncc3cc(S(=O)(=O)c4ccccc4)ccc3c2=O)o1` [Example 86, 5-((1-oxo-6-(phenylsulfonyl)phthalazin-2(1H)-yl)methyl)furan −2-carboxamide], the concentration for a half-maximal effect (EC50) is 765 nM. Besides, under setting [1], the maximal response (Emax) stood at 92.2%.
On to `COc1ccc(F)c(Cn2ncc3cc(S(=O)(=O)c4cn[nH]c4)ccc3c2=O)n1` [Example 326], for which the EC50 amounted to 174 nM. Under setting [1], the maximum response (Emax) amounted to 106%.
With `Cc1cc(Cn2ncc3cc(S(=O)(=O)c4cnn(C(F)F)c4)ccc3c2=O)n[nH]1` [Example 315], the half-maximal effective concentration (EC50) was found to be 241 nM. Besides, the Emax under setting [1] was 108%.
Turning to `O=c1c2ccc(S(=O)(=O)c3cccnc3)cc2cnn1Cc1cc[nH]n1` [Example 233, 2-((1H-pyrazol-3-yl)methyl)-6-(pyridin-3-ylsulfonyl)phthalazin-1(2H)-one], the EC50 turned out to be 489 nM. For the same compound, the maximal response (Emax) under setting [1] was 126%.
With `Cc1cc(Cn2ncc3cc(S(=O)(=O)c4cnn(C)c4)ccc3c2=O)n[nH]1` [Example 312], the half-maximal effective concentration (EC50) stood at 215 nM. The maximum response (Emax) under setting [1] was found to be 102%.
Take `O=c1c2cc(NCCO)c(S(=O)(=O)c3ccccc3)cc2cnn1Cc1cc[nH]n1` [Example 263, 2-((1H-pyrazol-3-yl)methyl)-7-((2-hydroxyethyl)amino)-6-(phenylsulfonyl)phthalazin-1(2H)-one]: the 50% effective concentration (EC50) was determined as 172 nM. Moreover, under setting [1], the Emax stood at 98%.
In the case of `O=c1c2ccc(S(=O)(=O)c3cc[nH]n3)cc2cnn1Cc1ccc2occc2n1` [Example 335], the EC50 was 14.2 nM. The Emax under setting [1] came out at 113%.
`Cn1ccc(Cn2ncc3cc(S(=O)(=O)c4ccccc4)cnc3c2=O)n1` [Example 250, 7-((1-methyl-1H-pyrazol-3-yl)methyl)-3-(phenylsulfonyl)pyrido[2,3-d]pyridazin-8(7H)-one]: the EC50 worked out at 398 nM. Further, under setting [1], the maximum response (Emax) worked out at 92.4%.
Consider `COc1ccc(Cn2ncc3cc(S(=O)(=O)c4ccc5c(c4)CC(C)O5)ccc3c2=O)cn1` (centres unmarked) [Example 167, 2-((6-methoxypyridin-3-yl)methyl)-6-((2-methyl-2,3-dihydrobenzofuran-5-yl)sulfonyl)phthalazin-1(2H)-one], for which the EC50 worked out at 65.8 nM. Moreover, the Emax under setting [1] was 95.5%.
As for `NC(=O)c1nc(Cn2ncc3cc(S(=O)(=O)c4ccccc4)ccc3c2=O)cs1` [Example 93, 4-((1-oxo-6-(phenylsulfonyl)phthalazin-2(1H)-yl)methyl)thiazole-2-carboxamide], the EC50 amounted to 411 nM. Also, under setting [1], the Emax was 108%.
Taken in the same sequence, the figures for `Cc1[nH]nc(Cn2ncc3cc(S(=O)(=O)c4cnn(C(F)F)c4)ccc3c2=O)c1Cl` [Example 349] were 45.3 nM and 92.5%.
On to `Cc1cc(Cn2ncc3cc(S(=O)(=O)c4csc(C)n4)ccc3c2=O)n[nH]1` [Example 358], for which the half-maximal effective concentration (EC50) was 77 nM. Also, under setting [1], the Emax came out at 98.4%.
Taken in the same sequence, the figures for `Cc1nc(S(=O)(=O)c2ccc3c(=O)n(Cc4cc5n(n4)CCO5)ncc3c2)cs1` [Example 357] were 77.1 nM and 100%.
On to `COc1ccc(Cn2ncc3cc(S(=O)(=O)c4ccccc4OC)ccc3c2=O)cn1` [Example 164, 6-(2-methoxyphenylsulfonyl)-2-((6-methoxypyridin-3-yl)methyl)phthalazin-1(2H)-one], for which the EC50 was 146 nM. Under setting [1], the Emax came to 107%.
Take `Cn1cc(S(=O)(=O)c2ccc3c(=O)n(Cc4ccc5occc5n4)ncc3c2)cn1` [Example 330]: the EC50 worked out at 20.6 nM. Also, the maximal effect (Emax) under setting [1] amounted to 108%.
Take `COc1ccc(S(=O)(=O)c2ccc3c(=O)n(Cc4ccnc(O)c4)ncc3c2)cc1` [Example 3, 2-((2-hydroxypyridin-4-yl)methyl)-6-((4-methoxyphenyl)sulfonyl)phthalazin-1(2H)-one]: the half-maximal effective concentration (EC50) amounted to 566 nM. For the same compound, under setting [1], the Emax came out at 92.6%.
In the same order, the values of `COc1ccc(Cn2ncc3cc(S(=O)(=O)c4ccn(C)n4)ccc3c2=O)cn1` [Example 158, 2-((6-methoxypyridin-3-yl)methyl)-6-((1-methyl-1H-pyrazol-3-yl)sulfonyl)phthalazin-1(2H)-one] are 186 nM and 85.4%.
`O=c1c2cnc(S(=O)(=O)c3cn[nH]c3)cc2cnn1Cc1ccc2c(n1)CCO2` [Example 347]: the concentration for a half-maximal effect (EC50) is 24.5 nM. Also, the maximal response (Emax) under setting [1] came out at 104%.
